According to PMC9641054, “Antimicrobial activity of cationic antimicrobial peptides against stationary phase bacteria” (Frontiers in Microbiology, 2022):
Values after ≈ are worked out from the molar mass of the structure shown. No end group written: not given here.

How the values were obtained:
Assay type in all cases: cell-based
Escherichia coli K12 [1] = experiment: microbe, parasite or virus in culture; conditions: for MIC: Escherichia coli, K12, read-out: MIC E. coli K12
Protocol: (§1) The Escherichia coli K12 from Yale University Microbial Stock Center and Staphylococcus aureus SH1000 ([Horsburgh et al., 2002]) were used for all experiments. All cultures related to antimicrobial tests and experiments were carried out in Mueller-Hinton I broth (Sigma) devoid of cations. Both strains were routinely cultured in Lysogeny Broth (LB medium).
(§2) The minimal inhibitory concentration for each antimicrobial were determined according to CLSI recommendations by the microdilution method ([CLSI, 2018]) with minor modifications for antimicrobial peptides ([Giacometti et al., 2000]). For comparison, we kept these modifications also for antibiotics. Inoculum size that was adjusted to approximately 1 × 10^6 CFU/ml from a 2-h mid-exponential phase obtained by diluting 100 μl of overnight cultures in 10 ml of fresh medium in 50 ml Falcon tubes. The MIC was defined as the minimal antimicrobial concentration that inhibited growth, after 24 h of incubation in liquid MHB medium at 37°C. Polypropylene non-binding plates (96 wells, Th. Geyer, Germany) were used for all experiments.

[2] = system: Staphylococcus aureus SH1000; experiment: microbe, parasite or virus in culture; conditions: for MIC: Staphylococcus aureus, SH1000, read-out: MIC S. aureus SH1000
Protocol: as §1, §2

Escherichia coli K12 [3] = experiment: Killing experiment at 10x MIC, fast-growing (exponential) versus stationary phase bacteria in spent medium; conditions: for Killing fold-change 4 h (median) / Killing fold-change 24 h: E. coli K12, exponentially growing versus stationary phase cultures, 10x MIC, ~2 × 10^6 CFU/ml, 37°C, five independent cultures; for Killing of stationary phase bacteria at 4 h (in words) / Killing of stationary phase bacteria at 24 h (in words): stationary phase in spent medium
Protocol: (§3) For exponentially growing bacteria, five independent cultures per treatment were diluted 1:100 from a 16-h overnight culture (by adding 100 μl to 10 ml of MHB medium in 50 ml Falcon tubes). Then, the bacteria were grown for 2 h for E. coli and 2.5 h for S. aureus, to reach approximately 2 × 10^8 CFU/ml. The cultures were then diluted 1/100 in fresh medium to reach approximately 2 × 10^6 CFU/ml. […] Volumes of 100 μl-sample were extracted at 4 and 24 h. The aliquots were diluted and plated to determine cell viability. Non-treated cells were used as a control. All incubations took place at 37°C with shaking.
(§4) In order to maintain bacteria in their non-dividing state, we generated a medium to carry out the killing assays. From the supernatant of 500 ml of 48-h culture from each bacterium, the cells were pelleted at 4000 ×g for 30 min. The pH of each culture was adjusted to match the original pH of 7.2. To remove additional cell debris, flagella rest and outer membrane vesicles that could potentially interfere with the activity of AMPs ([Manning and Kuehn, 2011]), the supernatants were ultracentrifuged at 100000 ×g during 16 h at + 4°C. Thereafter, 250 ml of the supernatant from each flask was carefully recovered, without perturbing the pellet, and aseptically filtrated using 0.22 μm syringe filters and 40 ml were transferred to sterile 50 ml-falcon tubes, that were stored at −20°C until use. We refer to this medium as spent medium.
(§5) For stationary phase bacteria, five independent cultures per treatment were used. Bacteria from 48-h cultures containing approximately 3 × 10^9 CFU/ml for E. coli and 2 × 10^9 CFU/ml for S. aureus were diluted in spent medium (see preparation above) to a final cell density of 2×10^6 CFU/ml. Then, the bacteria were treated identically to the fast-growing bacteria killing experiment described above.
(§6) Statistical testing and plots were done in R version 3.3.2 ([R Core Team, 2017]), using Rstudio version 1.0.143 ([R Development Core Team, 2015]). To compare killing rates between bacteria growing in exponential and stationary phase for each antimicrobial after 4 and 24 h of exposure, a Welch’s t-test was used. Values below the detection limit (zero colony counts) were imputed for statistical purposes assigning a value of 1.

[4] = system: Staphylococcus aureus SH1000; experiment: as above; conditions: for Killing fold-change 4 h (median) / Killing fold-change 24 h: S. aureus SH1000, exponentially growing versus stationary phase cultures, 10x MIC, ~2 × 10^6 CFU/ml, 37°C, five independent cultures; for Killing of stationary phase bacteria at 4 h (in words) / Killing of stationary phase bacteria at 24 h (in words): stationary phase in spent medium
Protocol: as §3, §4, §5, §6

[5] = microdilution, inoculum ~1 × 10^6 CFU/ml mid-exponential phase, MHB devoid of cations, 24 h, 37°C, polypropylene non-binding plates

Compound	MIC (Escherichia coli K12 [1]; [5])	MIC [2, 5]	Killing fold-change 4 h (median) (Escherichia coli K12 [3])	Killing fold-change 24 h (Escherichia coli K12 [3])	Killing of stationary phase bacteria at 4 h (in words) (Escherichia coli K12 [3]; E. coli, 10 × MIC)	Killing of stationary phase bacteria at 24 h (in words) (Escherichia coli K12 [3]; E. coli, 10 × MIC)	Killing fold-change 4 h (median) [4]	Killing fold-change 24 h [4]	Killing of stationary phase bacteria at 4 h (in words) ([4]; S. aureus, 10 × MIC)	Killing of stationary phase bacteria at 24 h (in words) ([4]; S. aureus, 10 × MIC)	MIC E. coli K12 (Escherichia coli K12 [1]; [5])	MIC S. aureus SH1000 [2, 5]	Killing of bacterial cultures (in words) (Escherichia coli K12 [3]; E. coli, 10 × MIC, fast and slow-replicating bacteria, both time-points 4 and 24 h)	Killing of bacterial cultures (in words) ([4]; S. aureus, 10 × MIC, fast and slow-replicating bacteria, both time-points 4 and 24 h)	MIC E. coli K12 (Escherichia coli K12 [1]; K12, 24 h)	MIC S. aureus SH1000 ([2]; SH1000, 24 h)
CC1(C)S[C@@H]2[C@H](NC(=O)[C@H](N)c3ccccc3)C(=O)N2[C@H]1C(=O)O [Ampicillin]	2 µg/mL (≈ 5.72 µM)	4 µg/mL (≈ 11.4 µM)	595.18	4,150,000	did not kill	poor killing capacity	13087.25	4,470,000	did not kill	poor killing capacity	–	–	–	–	–	–
O=C(O)c1cn(C2CC2)c2cc(N3CCNCC3)c(F)cc2c1=O [Ciprofloxacin]	–	–	–	–	–	reduced microbial count for both models with a significantly lower efficacy than killing fast-replicating cultures	–	–	–	reduced microbial count for both models with a significantly lower efficacy than killing fast-replicating cultures	–	–	–	–	–	–
CNC(C)C1CCC(N)C(OC2C(N)CC(N)C(OC3OCC(C)(O)C(NC)C3O)C2O)O1 (centres unmarked) [Gentamicin]	1 µg/mL (≈ 2.09 µM)	4 µg/mL (≈ 8.38 µM)	10380.62	317,000	–	reduced microbial count for both models with a significantly lower efficacy than killing fast-replicating cultures	8508.47	2,890,000	–	reduced microbial count for both models with a significantly lower efficacy than killing fast-replicating cultures	–	–	–	–	–	–
CC[C@H](C)[C@H](N)C(=O)N[C@@H](CC(C)C)C(=O)N1CCC[C@H]1C(=O)N[C@@H](Cc1c[nH]c2ccccc12)C(=O)N[C@@H](CCCCN)C(=O)N[C@@H](Cc1c[nH]c2ccccc12)C(=O)N1CCC[C@H]1C(=O)N[C@@H](Cc1c[nH]c2ccccc12)C(=O)N[C@@H](Cc1c[nH]c2ccccc12)C(=O)N1CCC[C@H]1C(=O)N[C@@H](Cc1c[nH]c2ccccc12)C(=O)N[C@@H](CCCNC(=N)N)C(=O)N[C@@H](CCCNC(=N)N)C(N)=O [Indolicidin]	–	–	–	1	–	–	–	1	–	–	16 µg/mL (≈ 8.39 µM)	8 µg/mL (≈ 4.2 µM)	completely killing	completely killing	–	–
CC[C@H](C)[C@H](NC(=O)[C@H](CCCCN)NC(=O)[C@H](CCC(=O)O)NC(=O)[C@H](CCCCN)NC(=O)[C@H](CO)NC(=O)[C@H](CCCCN)NC(=O)[C@H](CCCNC(=N)N)NC(=O)[C@H](Cc1ccccc1)NC(=O)[C@H](Cc1ccccc1)NC(=O)[C@H](CC(=O)O)NC(=O)CNC(=O)[C@H](CC(C)C)NC(=O)[C@@H](N)CC(C)C)C(=O)NCC(=O)N[C@@H](CCCCN)C(=O)N[C@@H](CCC(=O)O)C(=O)N[C@@H](Cc1ccccc1)C(=O)N[C@@H](CCCCN)C(=O)N[C@@H](CCCNC(=N)N)C(=O)N[C@H](C(=O)N[C@H](C(=O)N[C@@H](CCC(N)=O)C(=O)N[C@@H](CCCNC(=N)N)C(=O)N[C@H](C(=O)N[C@@H](CCCCN)C(=O)N[C@@H](CC(=O)O)C(=O)N[C@@H](Cc1ccccc1)C(=O)N[C@@H](CC(C)C)C(=O)N[C@@H](CCCNC(=N)N)C(=O)N[C@@H](CC(N)=O)C(=O)N[C@@H](CC(C)C)C(=O)N[C@H](C(=O)N1CCC[C@H]1C(=O)N[C@@H](CCCNC(=N)N)C(=O)N[C@H](C(=O)N[C@@H](CCC(=O)O)C(=O)N[C@@H](CO)C(=O)O)[C@@H](C)O)C(C)C)[C@@H](C)CC)C(C)C)[C@@H](C)CC [LL-37]	–	–	3.71	1	some delay in killing	–	0.66	1	some delay in killing	–	4 µg/mL (≈ 0.89 µM)	8 µg/mL (≈ 1.78 µM)	–	–	–	–
CC[C@H](C)[C@H](NC(=O)CN)C(=O)NCC(=O)N[C@@H](C)C(=O)N[C@H](C(=O)N[C@@H](CC(C)C)C(=O)N[C@@H](CCCCN)C(=O)N[C@H](C(=O)N[C@@H](CC(C)C)C(=O)N[C@H](C(=O)N[C@H](C(=O)NCC(=O)N[C@@H](CC(C)C)C(=O)N1CCC[C@H]1C(=O)N[C@@H](C)C(=O)N[C@@H](CC(C)C)C(=O)N[C@H](C(=O)N[C@@H](CO)C(=O)N[C@@H](Cc1c[nH]c2ccccc12)C(=O)N[C@H](C(=O)N[C@@H](CCCCN)C(=O)N[C@@H](CCCNC(=N)N)C(=O)N[C@@H](CCCCN)C(=O)N[C@@H](CCCNC(=N)N)C(=O)N[C@@H](CCC(N)=O)C(=O)N[C@@H](CCC(N)=O)C(N)=O)[C@@H](C)CC)[C@@H](C)CC)[C@@H](C)O)[C@@H](C)O)C(C)C)C(C)C [Melittin]	–	–	–	–	some delay in killing	–	–	17	some delay in killing	–	2 µg/mL (≈ 0.703 µM)	2 µg/mL (≈ 0.703 µM)	–	–	–	–
GIGKFLKKAKKFGKAFVKILKK-NH2 (C-terminus assumed) [Pexiganan]	–	–	2.53	1	some delay in killing	–	1.14	1	some delay in killing	–	–	–	–	–	4 µg/mL	8 µg/mL
KWKLFKKIEKVGQNIRDGIIKAGPAVAVVGQATQIAK-NH2 (C-terminus assumed) [Cecropin A]	–	–	1.21	27	some delay in killing	–	1.30	0.22	some delay in killing	–	–	–	–	–	–	–
